Measured values from US11135209B2, “Compositions and methods for inhibiting protein kinases” (UNIVERSITY OF HOUSTON SYSTEM, priority 2017, dated 2021).

Tests used:
[1] = molecular target: Recombinant RIPK2 protein (Homo sapiens, UniProt O43353); assay: Receptor Interacting Protein Kinase 2 (RIPK2) enzyme assay (ADP-Glo); format: biochemical; conditions: for inhibition at 0.5 µM: Conc. 500 nM
Protocol: Receptor Interacting Protein Kinase 2 (RIPK2) Enzyme Assay
Recombinant RIPK2 protein (20 ng per reaction) is diluted in the reaction buffer consisting of 40 mM Tris (pH 7.5); 20 mM MgCl2; 0.1 mg/ml BSA; 50 μM DTT. Diluted protein is added to low volume white 384 well plates (2 μL/well). Inhibitors are diluted in reaction buffer (final 25% DMSO), 1 μL is added to each well and incubated 5 min at room temperature. Reactions are initiated by the addition of 2 μL of 100 μM ATP and 1 mg/ml RS repeat peptide (SignalChem) in the reaction buffer. Plates are sealed with plastic coverslips and incubated at room temperature for 2 h. Reactions are stopped by the addition of 5 μL of ADP-Glo reagent (Promega) and ADP generation reaction is performed for 40 min at room temperature. Luminescence signal is generated by the addition of 10 μL of Kinase detection reagent (Promega) for 30 min at room temperature Luminescence signals are determined using appropriate luminescence plate-reader (typical integration time 0.3-1 sec). To calculate percent inhibition, average background signal is subtracted from test well and maximal signal wells. Inhibition, %=(1−(test signal/maximal signal))*100. The percent inhibition at a specified concentration is determined or IC50 values are calculated based on a dose range of inhibitor concentrations using non-linear regression in GraphPad Prism software.

[2] = system: NOD2 cellular signaling in HEK-Blue cells expressing human NOD2; assay: NOD2 cell signaling assay (HEK-Blue, NFkB-SEAP reporter, L18-MDP stimulated); format: cell-based; conditions: read-out: IC50 (nM) HEKBlue RIPK2
Protocol: NOD2 Cell Signaling Assay.
HEK-Blue cells expressing human NOD2 and NFkB-SAEP reporter (Invivogen) are seeded into 96 well clear plates at 7.5×10^3 cells per well in 100 μL of DMEM media supplemented with 10% FBS and 1% antibiotic-antimycotic mix. Cells are allowed to attach for 48 h in 5% CO2 tissue culture incubator at 37° C. On the morning of the experiment, media in the wells is replaced with 100 pt of HEK-Blue detection media (Invivogen). Cells are treated with the inhibitors, diluted in DMSO (0.5 μL per well) for 15 min in 5% CO2 tissue culture incubator at 37° C. After that, cells are stimulated by the addition of 1 ng/well L18-MDP (Invivogen). Cells are incubated in 5% CO2 tissue culture incubator at 37° C. for 8 h and absorbance, corresponding to the SEAP in the media, is determined in Wallac3V plate reader (Perkin Elmer). Inhibition, %=(1−((sample signal-unstimulated and DMSO treated cells)/(L18-MDP stimulated and DMSO treated cells−unstimulated and DMSO treated cells)))*100. IC50 values are calculated based on a dose range of inhibitor concentrations using non-linear regression in GraphPad Prism software.

human ALK2 = molecular target: T1, human ALK2 (Homo sapiens, UniProt Q04771); assay: Activin-Like Kinase 2 (ALK2) enzyme assay; format: biochemical
T1 sequence (Q04771 21-509): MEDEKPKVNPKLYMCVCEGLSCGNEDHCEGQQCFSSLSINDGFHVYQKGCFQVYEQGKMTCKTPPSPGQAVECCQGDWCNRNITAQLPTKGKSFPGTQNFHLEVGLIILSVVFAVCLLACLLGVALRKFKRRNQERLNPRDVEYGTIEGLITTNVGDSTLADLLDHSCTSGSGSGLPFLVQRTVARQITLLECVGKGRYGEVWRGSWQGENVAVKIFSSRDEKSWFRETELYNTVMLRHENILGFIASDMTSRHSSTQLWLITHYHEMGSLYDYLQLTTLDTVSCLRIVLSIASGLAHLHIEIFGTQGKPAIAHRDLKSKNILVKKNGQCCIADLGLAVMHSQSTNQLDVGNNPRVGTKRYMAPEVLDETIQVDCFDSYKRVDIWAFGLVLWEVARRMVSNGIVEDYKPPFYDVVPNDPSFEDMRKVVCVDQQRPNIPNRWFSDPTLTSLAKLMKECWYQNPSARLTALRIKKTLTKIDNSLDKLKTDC
Protocol: Activin-Like Kinase 2 (ALK2) Enzyme Assay
Enzyme inhibitory activity was evaluated in a standard kinase enzyme assay by incubating human ALK2 with the protein substrate casein (1 mg/mL) and γ-^33ATP (10 μM) in the presence of various concentrations of test compounds (10 nM-100 μM). After 30 min the amount of ^33P-casein was determined.

Chain of Recombinant RIPK2 protein (O43353 whole entry, species assumed): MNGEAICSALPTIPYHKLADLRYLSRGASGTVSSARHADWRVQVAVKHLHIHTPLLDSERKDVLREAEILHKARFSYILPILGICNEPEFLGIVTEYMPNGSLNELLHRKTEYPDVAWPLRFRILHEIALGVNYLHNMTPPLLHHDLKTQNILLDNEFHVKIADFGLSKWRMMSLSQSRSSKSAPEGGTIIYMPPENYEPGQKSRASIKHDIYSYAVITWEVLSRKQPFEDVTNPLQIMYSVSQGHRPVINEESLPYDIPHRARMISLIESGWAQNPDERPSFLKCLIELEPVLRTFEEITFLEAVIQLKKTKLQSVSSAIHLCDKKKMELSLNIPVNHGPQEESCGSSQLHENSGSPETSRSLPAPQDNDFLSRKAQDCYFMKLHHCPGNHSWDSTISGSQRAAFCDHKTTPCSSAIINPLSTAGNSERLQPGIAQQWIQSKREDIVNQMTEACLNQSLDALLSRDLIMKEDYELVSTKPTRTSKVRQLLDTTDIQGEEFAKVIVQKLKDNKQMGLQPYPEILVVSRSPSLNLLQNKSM

Compound	IC50 [1]	IC50 [2]	IC50 (human ALK2)	inhibition at 0.25 µM ([1]; Conc. 250 nM)	inhibition at 0.5 µM [1]
CCCS(=O)(=O)Nc1cc(F)cc(-c2cc(-c3ccc(N4CCNCC4)cc3)cnc2N)c1 [CSLP38, N-(3-(2-Amino-5-(4-(piperazin-1-yl)phenyl)pyridin-3-yl)-5-fluorophenyl)propane-1-sulfonamide]	> 10 nM	> 100 nM	> 10 nM		
COc1cc(NS(=O)(=O)CC(C)C)cc(-c2cc(-c3ccc(N4CCNCC4)cc3)cnc2N)c1 [CSLP12, N-(3-(2-Amino-5-(4-(piperazin-1-yl)phenyl)pyridin-3-yl)-5-methoxyphenyl)-2-methylpropane-1-sulfonamide]	> 10 nM	> 100 nM	> 1 nM		
CCCS(=O)(=O)Nc1cc(-c2cc(-c3ccc(N4CCNCC4)cc3)cnc2N)cc(OC)c1C [CSLP19, N-(5-(2-Amino-5-(4-(piperazin-1-yl)phenyl)pyridin-3-yl)-3-methoxy-2-methylphenyl)propane-1-sulfonamide]	> 1000 nM	> 1000 nM	> 100 nM		
CCCS(=O)(=O)NCc1cc(-c2cc(-c3ccc(N4CCNCC4)cc3)cnc2N)ccc1OC [CSLP36, N-(5-(2-Amino-5-(4-(piperazin-1-yl)phenyl)pyridin-3-yl)-2-methoxybenzyl)propane-1-sulfonamide]	> 100 nM	> 1000 nM	> 100 nM		
CCCS(=O)(=O)Nc1cc(-c2cc(-c3ccc(N4CCNCC4)cc3)cnc2N)cc(OC)c1OC [CSLP43, N-(5-(2-Amino-5-(4-(piperazin-1-yl)phenyl)pyridin-3-yl)-2,3-dimethoxyphenyl)propane-1-sulfonamide]	> 10 nM	> 1 nM	> 10 nM		
COc1cc(NS(=O)(=O)C(C)C)cc(-c2cc(-c3ccc(N4CCNCC4)cc3)cnc2N)c1 [CSLP8]	> 10 nM	> 100 nM	> 1 nM		
CCCS(=O)(=O)Nc1cc(-c2cc(-c3cccc(N4CCNCC4)c3)cnc2N)cc(F)c1OC [CSLP58, N-(5-(2-Amino-5-(3-(piperazin-1-yl)phenyl)pyridin-3-yl)-3-fluoro-2-methoxyphenyl)propane-1-sulfonamide]	> 10 nM	> 10 nM	> 100 nM		
COc1cc(NS(C)(=O)=O)cc(-c2cc(-c3ccc(N4CCNCC4)cc3)cnc2C)c1 [CSLP2, N-(3-Methoxy-5-(2-methyl-5-(4-(piperazin-1-yl)phenyl)pyridin-3-yl)phenyl)methanesulfonamide]	> 100 nM	> 1000 nM	> 10 nM	39%	
CCCS(=O)(=O)Nc1cc(-c2cc(-c3ccc(N4CCNCC4)cc3)cnc2N)cc(OCC)c1OCC [CSLP49]	> 1000 nM	> 1000 nM	> 100000 nM		
CCCS(=O)(=O)N1CCOc2ccc(-c3cc(-c4ccc(N5CCNCC5)cc4)cnc3N)cc21 [CSLP47, 5-(4-(Piperazin-1-yl)phenyl)-3-(4-(propylsulfonyl)-3,4-dihydro-2H-benzo[b][1,4]oxazin-6-yl)pyridin-2-amine]	> 10 nM	> 1000 nM	> 100000 nM		
COc1ccc(-c2cc(-c3ccc(N4CCNCC4)cc3)cnc2N)cc1NS(=O)(=O)C(C)C [CSLP28, N-(5-(2-Amino-5-(4-(piperazin-1-yl)phenyl)pyridin-3-yl)-2-methoxyphenyl)propane-2-sulfonamide]	> 10 nM	> 100 nM	> 1000 nM		
COc1cc(NS(=O)(=O)C(C)C)cc(-c2cc(-c3ccc(N4CCNCC4)cc3)cnc2C)c1 [CSLP16, N-(3-Methoxy-5-(2-methyl-5-(4-(piperazin-1-yl)phenyl)pyridin-3-yl)phenyl)propane-2-sulfonamide]	> 10 nM	> 100 nM	> 100 nM		85%
COc1cc(NS(=O)(=O)CC(C)C)cc(-c2cc(-c3ccc(N4CCNCC4)cc3)cnc2C)c1 [CSLP17, N-(3-Methoxy-5-(2-methyl-5-(4-(piperazin-1-yl)phenyl)pyridin-3-yl)phenyl)-2-methylpropane-1-sulfonamide]	> 10 nM	> 1000 nM	> 10 nM		86%
CCCS(=O)(=O)Nc1cc(-c2cc(-c3cccc(S(C)(=O)=O)c3)cnc2N)ccc1OC [CSLP30]	> 100 nM	> 1000 nM	> 10000 nM		
CCCS(=O)(=O)Nc1cc(-c2cc(-c3ccc(N4CCNCC4)cc3)cnc2N)ccc1OC [CSLP18]	> 10 nM	> 100 nM	> 1000 nM		
CCCS(=O)(=O)N1CCOc2c(F)cc(-c3cc(-c4ccc(N5CCNCC5)cc4)cnc3N)cc21 [CSLP57, 3-(8-Fluoro-4-(propylsulfonyl)-3,4-dihydro-2H-benzo[b][1,4]oxazin-6-yl)-5-(4-(piperazin-1-yl)phenyl)pyridin-2-amine]	> 100 nM	> 100 nM	> 1000 nM		
COc1cc(NS(C)(=O)=O)cc(-c2cc(-c3ccc(N4CCNCC4)cc3)cnc2N)c1 [CSLP3]	> 10 nM	> 100 nM	> 1 nM		
COc1cc(-c2cc(-c3ccc(N4CCNCC4)cc3)cnc2N)cc(NS(=O)(=O)C(C)C)c1C [CSLP25, N-(5-(2-Amino-5-(4-(piperazin-1-yl)phenyl)pyridin-3-yl)-3-methoxy-2-methylphenyl)propane-2-sulfonamide]	> 1000 nM	> 1000 nM	> 1000 nM		
CCCS(=O)(=O)Nc1cc(-c2cc(-c3ccc(N4CCNCC4)cc3)cnc2N)cc(F)c1OC [CSLP37, N-(5-(2-Amino-5-(4-(piperazin-1-yl)phenyl)pyridin-3-yl)-3-fluoro-2-methoxyphenyl)propane-1-sulfonamide]	> 10 nM	> 10 nM	> 100 nM		
CCCS(=O)(=O)Nc1cc(-c2cc(-c3ccc(N4CCNCC4)cc3)cnc2N)ccc1C [CSLP26, N-(5-(2-Amino-5-(4-(piperazin-1-yl)phenyl)pyridin-3-yl)-2-methylphenyl)propane-1-sulfonamide]	> 100 nM	> 1000 nM	> 1000 nM		
CCOc1cc(NS(=O)(=O)C(C)C)cc(-c2cc(-c3ccc(N4CCNCC4)cc3)cnc2N)c1 [CSLP22, N-(3-(2-Amino-5-(4-(piperazin-1-yl)phenyl)pyridin-3-yl)-5-ethoxyphenyl)propane-2-sulfonamide]	> 10 nM	> 10 nM	> 100 nM		
CCCS(=O)(=O)Nc1cc(-c2cc(-c3ccc(N4CCNCC4)cc3)cnc2N)cc2c1OCCO2 [CSLP52, N-(7-(2-Amino-5-(4-(piperazin-1-yl)phenyl)pyridin-3-yl)-2,3-dihydrobenzo[b][1,4]dioxin-5-yl)propane-1-sulfonamide]	> 100 nM	> 1000 nM	> 100000 nM		
CCS(=O)(=O)Nc1cc(OC)cc(-c2cc(-c3ccc(N4CCNCC4)cc3)cnc2C)c1 [CSLP15, N-(3-Methoxy-5-(2-methyl-5-(4-(piperazin-1-yl)phenyl)pyridin-3-yl)phenyl)ethanesulfonamide]	> 100 nM	> 1000 nM	> 10 nM		73%
CCCS(=O)(=O)Nc1cc(-c2cc(-c3ccc(N4CCNCC4)cc3)cnc2N)cc(Cl)c1C [CSLP40, N-(5-(2-Amino-5-(4-(piperazin-1-yl)phenyl)pyridin-3-yl)-3-chloro-2-methylphenyl)propane-1-sulfonamide]	> 100 nM	> 1000 nM	> 100 nM		
